Patent publication US20030187075A1, “Sponge antitumor compounds” (priority 2000, published 2003)
Values after ≈ are worked out from the molar mass of the structure shown.

Legend:
Format in all cases: cell-based
P388 Leukaemia = assay: Antitumoral activity, cytotoxicity against P388; details: Mus musculus; P388 Leukaemia cells
A549 (Human Lung) = assay: Antitumoral activity, cytotoxicity against A549; details: A549 (Human Lung) cells
HT29 (Human Colon) = assay: Antitumoral activity, cytotoxicity against HT29; details: HT-29; HT29 (Human Colon) cells
MEL28 (Melanoma) = assay: Antitumoral activity, cytotoxicity against MEL28; details: Homo sapiens, SK-MEL-28; MEL28 (Melanoma) cells

| Structure (SMILES) | IC50 (P388 Leukaemia) [µg/mL] | IC50 (A549 (Human Lung)) [µg/mL] | IC50 (HT29 (Human Colon)) [µg/mL] | IC50 (MEL28 (Melanoma)) [µg/mL] |
| --- | --- | --- | --- | --- |
| CC1(C)[C@@H](Cl)[C@@H](O)C[C@]2(C)C/C(=C/C=O)CC[C@@H]12 [Compound 2] | 1 (≈ 3.69 µM) | 1 (≈ 3.69 µM) | 1 (≈ 3.69 µM) | 1 (≈ 3.69 µM) |
| CC1(C)[C@@H](Cl)CC[C@]2(C)C=C(C=CN=C(Cl)Cl)CC[C@@H]12 [Compound 4] | 1 (≈ 2.99 µM) | 1 (≈ 2.99 µM) | 1 (≈ 2.99 µM) | 1 (≈ 2.99 µM) |
| CC1(C)[C@@H](Cl)[C@@H](O)C[C@]2(C)C/C(=C\C=O)CC[C@@H]12 [Compound 3] | 1 (≈ 3.69 µM) | 1 (≈ 3.69 µM) | 1 (≈ 3.69 µM) | 1 (≈ 3.69 µM) |
| C=C(CC[C@@H]1C(=C)CC[C@H](Cl)C1(C)C)C(Cl)CN=C(Cl)Cl (stereo partly shown) [Compound 1] | 1 (≈ 2.69 µM) | 0.1 (≈ 0.269 µM) | 0.1 (≈ 0.269 µM) | 0.1 (≈ 0.269 µM) |
